Reference: patent US10201510B2, “Compositions and methods for treatment of neurological symptoms associated with alcohol-withdrawal and for convulsive seizure” (Oregon Health & Science University, priority 2005, dated 2019)

What was measured:
[1] = tested on: withdrawal seizures in alcohol-dependent mice; experiment: Predicted anti-seizure activity; assay type: in vivo, mouse; parameters: key: la = long-acting; The ++ farnesol activity was arbitrary; conditions: for Predicted anti-seizure activity: long-acting (la): duration flag in brackets
[2] = molecular target: T1, neuronal voltage-gated, L-type (Cav1.3) α1D subunit Ca^2+ channel (Rattus norvegicus, UniProt P27732); experiment: KCl-induced Ca^2+ signaling in fura-2 loaded PC12 cells; assay type: cell-based
T1 construct: KCl-induced intracellular Ca^2+ signaling in non-NGF treated PC12 cells loaded with fura-2; endogenous in cells; host or cells: PC12 cells (non-NGF treated)
Excerpt: According to particular aspects of the present invention, the alcohol group is essential for activity. Additionally, the activity of farnesol metabolites on neuronal voltage-gated L-type Ca^2+ channels was investigated. […] The Ca^2+ channel activity is expressed as % inhibition of KCl-induced intracellular Ca^2+ signaling in non-NGF differentiated PC12 cells loaded with fura-2 (see Materials and Methods under Example 2). The assayed molecules are: FPP—farnesyl pyrophosphate; FOH—all-trans farnesol; FCHO—all-trans farnesal; and FCOOH—all-trans farnesoic acid (prepared by Dr. McDougal).
(§1) To identify compounds with enhanced L-type Ca^2+ channel blocker activity, several compounds were either purchased or synthesized, and then tested for their ability to inhibit: (1) KCl-induced contraction in isolated arteries; (2) KCl-induced Ca^2+ signaling in fura-2 loaded arteries; and (3) KCl-induced Ca^2+ signaling in fura-2 loaded PC12 cells, all using art-recognized methods established in the applicants' laboratories (Roullet, 1993, 1994, 1995, 1997; De Lima, 1999). Arteries express smooth muscle voltage-gated, L-type (Cav1.2 or α1C subunit) Ca^2+ channels, whereas PC12 cells constitutively express the neuronal voltage-gated, L-type (Cav1.3) α1D subunit (Ertel, 2000).
Ca^2+ channel activity is expressed as % inhibition of KCl-induced intracellular Ca^2+ signaling in non-NGF treated PC12 cells loaded with fura-2.

[3] = molecular target: T1, neuronal voltage-gated, L-type (Cav1.3) α1D subunit Ca^2+ channel; conditions: PC12 cells; cited from earlier work
[4] = molecular target: T2, N-type Ca^2+ channel (α1B subunit) (Homo sapiens, UniProt Q00975); experiment: Patch-clamp on HEK cells transfected with human α1B (Cav2.2) subunits; assay type: cell-based; conditions: at 5 min; Hp=−100 mV; 20 mM Ba^2+
T2 construct: expressed in transfected cells; host or cells: HEK cells
Protocol: FIGS. 4A and 4B show neuronal (α1D subunit) L-type Ca^2+ channel (Ca^2+ signaling in fura-2 loaded PC12 cells) (FIG. 4A); on neuronal (α1B subunit) N-type Ca^2+ channel (α1B-transfected HEK cells; as in Roullet, 1999) (FIG. 4B). Current-voltage relationship (IV) recording conditions were: holding potential (hp)=−100 mV; 20 mM Ba^2+. Inhibition of N-type currents was ˜90% at 5 min.
Experiments (FIG. 4) using patch-clamp techniques and HEK cells transfected with human α1B (Cav2.2) subunits further indicate that, like farnesol, retinol also blocks N-type calcium channels. FIGS. 4A and 4B show, according to preferred aspects of the present invention, the effect of all-trans retinol on: neuronal (α1D subunit) L-type Ca^2+ channel (Ca^2+ signaling in fura-2 loaded PC12 cells) (FIG. 4A); an on neuronal (α1B subunit) N-type Ca^2+ channel (α1B-transfected HEK cells; as in Roullet, 1999) (FIG. 4B). IV recording conditions were: Hp=−100 mV; 20 mM Ba^2+. Inhibition of N-type currents was ˜90% at 5 min.

ADH [5] = conditions: cited from earlier work
[6] = molecular target: T3, voltage-gated L-type Ca^2+ channels (Homo sapiens, UniProt Q13936); conditions: cited from earlier work
T3 construct: host or cells: arteries / vascular smooth muscle cells

L-type Ca^2+ channel = molecular target: T4, L-type Ca^2+ channel (Mus musculus, UniProt Q01815); experiment: Reversibility of inhibition of L-type Ca^2+ channel mediated arterial contraction after wash-out
T4 construct: KCl-induced contraction in isolated arteries; from tissue; host or cells: mouse mesenteric arteries
Protocol: (§2) Contractions obtained after 30 min. incubation with the test compounds (left portion of graph), and after a 60-min. wash-out (right portion of graph).
(§3) Moreover, farnesylamine is likely to be metabolized through pathways different from those involved in farnesol clearance.

Storage stability = assay type: physicochemical; conditions: −20° C., pure form or ethanol solutions (typically 25 mM)
Protocol: According to the present invention, the synthesis of geranylresorcinol (GR) (4) is based on the condensation of geranyl bromide (1) and 3-hydroxyphenyl benzoate (2), followed by alkaline cleavage of the formed ester (3). The method generates pure GR with an overall yield of 40%. The compound is stable when stored at −20° C. either in its pure form or in ethanol solutions (typically prepared at 25 mM). Long-term storage may be associated with some darkening of the product, as typically observed with electron-rich phenols, but it is not associated with significant loss of activity (on arteries).

[7] = molecular target: T5, smooth muscle voltage-gated, L-type (Cav1.2 or α1C subunit) Ca^2+ channels (Mus musculus, UniProt Q01815); experiment: KCl-induced contraction in isolated arteries; conditions: FIG. 5 / FIG. 6 (25 μM)
T5 construct: KCl-induced contraction in isolated arteries; from tissue; host or cells: mouse mesenteric arteries
Protocol: as §2, §1

microsomal FolDH = experiment: Recognition by microsomal FolDH; assay type: in vitro ADME
ADH [8] = experiment: Metabolism / substrate recognition by ADH; assay type: in vitro ADME
[9] = molecular target: T6, human recombinant monoamine oxidase A (Homo sapiens, UniProt P21397); experiment: Monoamine oxidase substrate test; assay type: in vitro ADME; conditions: rat liver mitochondrial membranes and human recombinant monoamine oxidase A and B
T6 sequence (P21397 1-527): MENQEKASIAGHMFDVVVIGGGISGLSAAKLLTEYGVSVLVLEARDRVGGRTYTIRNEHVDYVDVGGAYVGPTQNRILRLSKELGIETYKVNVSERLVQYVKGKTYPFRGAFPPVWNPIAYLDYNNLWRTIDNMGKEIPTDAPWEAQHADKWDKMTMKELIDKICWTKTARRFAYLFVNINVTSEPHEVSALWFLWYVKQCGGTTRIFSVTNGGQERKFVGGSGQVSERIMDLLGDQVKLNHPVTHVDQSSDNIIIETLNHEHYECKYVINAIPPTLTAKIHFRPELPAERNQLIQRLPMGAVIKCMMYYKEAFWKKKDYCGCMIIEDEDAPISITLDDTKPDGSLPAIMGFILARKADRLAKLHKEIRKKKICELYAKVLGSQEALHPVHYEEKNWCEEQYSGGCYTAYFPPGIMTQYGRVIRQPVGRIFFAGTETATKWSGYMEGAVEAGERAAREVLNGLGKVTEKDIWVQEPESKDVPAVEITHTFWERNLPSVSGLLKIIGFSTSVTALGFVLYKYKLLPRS
Excerpt: as §3

T4 sequence (Q01815 whole entry): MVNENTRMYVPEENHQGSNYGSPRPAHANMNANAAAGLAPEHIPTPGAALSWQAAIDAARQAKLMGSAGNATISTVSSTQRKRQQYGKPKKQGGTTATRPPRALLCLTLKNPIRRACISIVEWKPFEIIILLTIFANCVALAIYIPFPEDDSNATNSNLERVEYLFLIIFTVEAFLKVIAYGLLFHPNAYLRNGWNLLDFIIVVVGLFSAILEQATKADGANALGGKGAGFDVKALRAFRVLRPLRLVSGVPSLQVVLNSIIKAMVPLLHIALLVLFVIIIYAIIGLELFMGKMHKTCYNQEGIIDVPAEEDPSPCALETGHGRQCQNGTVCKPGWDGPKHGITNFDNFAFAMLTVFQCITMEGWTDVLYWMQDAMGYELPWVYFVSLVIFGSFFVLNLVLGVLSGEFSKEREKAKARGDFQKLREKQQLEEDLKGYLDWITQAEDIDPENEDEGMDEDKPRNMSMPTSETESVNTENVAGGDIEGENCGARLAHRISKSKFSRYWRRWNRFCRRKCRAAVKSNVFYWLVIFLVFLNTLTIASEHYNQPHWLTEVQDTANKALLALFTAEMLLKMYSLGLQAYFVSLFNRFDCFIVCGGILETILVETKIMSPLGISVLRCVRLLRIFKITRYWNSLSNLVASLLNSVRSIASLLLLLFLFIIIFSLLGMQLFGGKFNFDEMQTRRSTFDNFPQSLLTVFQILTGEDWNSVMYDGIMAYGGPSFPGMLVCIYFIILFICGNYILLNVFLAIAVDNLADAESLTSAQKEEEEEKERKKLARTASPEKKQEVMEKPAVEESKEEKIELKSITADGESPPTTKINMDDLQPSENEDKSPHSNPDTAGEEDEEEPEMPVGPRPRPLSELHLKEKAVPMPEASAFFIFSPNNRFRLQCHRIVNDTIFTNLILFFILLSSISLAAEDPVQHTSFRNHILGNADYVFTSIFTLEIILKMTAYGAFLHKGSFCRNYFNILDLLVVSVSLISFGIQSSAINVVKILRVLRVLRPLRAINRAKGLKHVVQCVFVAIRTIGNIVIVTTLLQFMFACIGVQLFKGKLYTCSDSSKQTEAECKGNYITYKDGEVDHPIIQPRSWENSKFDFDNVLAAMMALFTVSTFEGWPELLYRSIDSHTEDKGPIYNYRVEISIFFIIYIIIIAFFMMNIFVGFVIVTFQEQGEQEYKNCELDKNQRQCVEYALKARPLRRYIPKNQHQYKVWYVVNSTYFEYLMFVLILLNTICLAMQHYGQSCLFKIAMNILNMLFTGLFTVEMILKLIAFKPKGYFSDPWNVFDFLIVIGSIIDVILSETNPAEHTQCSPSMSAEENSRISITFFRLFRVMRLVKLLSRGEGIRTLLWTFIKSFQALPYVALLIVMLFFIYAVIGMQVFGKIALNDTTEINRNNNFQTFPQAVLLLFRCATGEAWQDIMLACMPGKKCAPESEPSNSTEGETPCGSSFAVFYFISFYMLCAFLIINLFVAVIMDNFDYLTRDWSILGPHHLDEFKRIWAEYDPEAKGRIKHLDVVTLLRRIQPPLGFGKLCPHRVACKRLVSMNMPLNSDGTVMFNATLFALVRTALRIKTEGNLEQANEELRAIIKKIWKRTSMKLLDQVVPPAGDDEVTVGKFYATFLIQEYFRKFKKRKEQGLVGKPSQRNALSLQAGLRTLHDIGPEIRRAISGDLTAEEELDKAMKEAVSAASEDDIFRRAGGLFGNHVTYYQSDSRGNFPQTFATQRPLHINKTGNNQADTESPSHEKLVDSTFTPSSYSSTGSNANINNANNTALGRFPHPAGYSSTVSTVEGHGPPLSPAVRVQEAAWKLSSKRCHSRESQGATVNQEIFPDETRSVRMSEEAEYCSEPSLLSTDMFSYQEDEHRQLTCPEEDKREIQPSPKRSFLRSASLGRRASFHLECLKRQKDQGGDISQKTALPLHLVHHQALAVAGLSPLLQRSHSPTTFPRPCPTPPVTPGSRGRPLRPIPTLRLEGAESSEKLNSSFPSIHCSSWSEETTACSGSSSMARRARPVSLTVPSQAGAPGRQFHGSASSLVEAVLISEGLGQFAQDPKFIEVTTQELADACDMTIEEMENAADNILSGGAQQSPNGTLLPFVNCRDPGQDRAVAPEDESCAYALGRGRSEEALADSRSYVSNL
T4 sequence (P54285 whole entry partner): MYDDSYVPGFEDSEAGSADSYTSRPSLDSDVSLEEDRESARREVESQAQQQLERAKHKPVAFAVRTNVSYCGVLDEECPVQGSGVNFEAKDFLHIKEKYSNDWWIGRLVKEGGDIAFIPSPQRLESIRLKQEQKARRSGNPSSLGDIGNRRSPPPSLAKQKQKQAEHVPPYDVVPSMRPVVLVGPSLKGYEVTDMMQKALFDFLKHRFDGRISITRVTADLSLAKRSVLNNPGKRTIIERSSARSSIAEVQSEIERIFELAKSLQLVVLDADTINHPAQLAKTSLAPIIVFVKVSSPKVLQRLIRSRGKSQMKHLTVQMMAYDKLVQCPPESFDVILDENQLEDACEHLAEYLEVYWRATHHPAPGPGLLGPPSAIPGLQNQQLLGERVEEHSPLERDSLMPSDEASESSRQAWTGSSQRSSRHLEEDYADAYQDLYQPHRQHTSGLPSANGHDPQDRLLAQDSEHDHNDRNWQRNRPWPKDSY
T4 sequence (O08532 25-956 partner limits assumed): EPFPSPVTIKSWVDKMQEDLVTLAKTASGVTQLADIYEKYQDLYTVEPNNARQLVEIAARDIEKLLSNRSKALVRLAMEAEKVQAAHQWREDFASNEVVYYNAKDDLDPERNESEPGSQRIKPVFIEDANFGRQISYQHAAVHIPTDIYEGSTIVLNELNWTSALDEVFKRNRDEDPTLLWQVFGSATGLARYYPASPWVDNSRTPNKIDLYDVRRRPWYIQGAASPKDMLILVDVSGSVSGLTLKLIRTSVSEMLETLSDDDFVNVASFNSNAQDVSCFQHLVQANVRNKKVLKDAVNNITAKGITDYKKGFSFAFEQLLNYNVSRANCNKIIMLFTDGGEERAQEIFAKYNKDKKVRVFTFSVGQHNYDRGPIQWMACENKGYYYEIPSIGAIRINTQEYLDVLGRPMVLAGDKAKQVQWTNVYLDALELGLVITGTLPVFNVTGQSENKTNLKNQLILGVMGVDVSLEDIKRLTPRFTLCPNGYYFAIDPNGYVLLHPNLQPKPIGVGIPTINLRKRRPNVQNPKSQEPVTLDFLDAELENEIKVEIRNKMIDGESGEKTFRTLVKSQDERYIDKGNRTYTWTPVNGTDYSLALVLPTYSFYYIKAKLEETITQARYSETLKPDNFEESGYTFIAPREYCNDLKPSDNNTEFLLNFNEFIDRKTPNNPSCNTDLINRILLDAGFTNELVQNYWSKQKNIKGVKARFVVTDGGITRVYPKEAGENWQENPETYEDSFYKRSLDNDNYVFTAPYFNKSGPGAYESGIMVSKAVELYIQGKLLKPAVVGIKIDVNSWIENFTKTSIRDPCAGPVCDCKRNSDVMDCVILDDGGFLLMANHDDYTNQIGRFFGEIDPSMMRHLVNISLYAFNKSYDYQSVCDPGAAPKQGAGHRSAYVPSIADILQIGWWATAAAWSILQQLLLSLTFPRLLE
T4 sequence (O08532 957-1103 partner limits assumed): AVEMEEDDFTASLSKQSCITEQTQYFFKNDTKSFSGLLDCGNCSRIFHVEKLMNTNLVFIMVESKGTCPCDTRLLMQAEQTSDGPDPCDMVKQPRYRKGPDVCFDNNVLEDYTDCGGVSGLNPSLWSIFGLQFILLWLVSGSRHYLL
T5 sequence (Q01815 whole entry): as the sequence (Q01815 whole entry) above
T5 sequence (P54285 whole entry partner): as the sequence (P54285 whole entry partner) above
T5 sequence (O08532 25-956 partner limits assumed): as the sequence (O08532 25-956 partner limits assumed) above
T5 sequence (O08532 957-1103 partner limits assumed): as the sequence (O08532 957-1103 partner limits assumed) above

Row | Structure (SMILES) | Predicted anti-seizure activity ([1]; based on effect on L-type Ca^2+ channels, CLogP and reversibility or ADH-FolDH recognition) | Predicted anti-seizure activity: long-acting (la) [1] | IC50 ([2]; read-out: IC50 on L-type Ca^2+ channels) | activity on neuronal L-type Ca^2+ channels (literature / prior studies) [3] | Inhibition of N-type currents [4] | metabolism by class IV ADH (ADH [5]) | activity on Ca^2+ channels / smooth muscle L-type channels (literature / prior studies) [6] | reversibility of effect compared with farnesol (L-type Ca^2+ channel) | storage stability (Storage stability) | activity on neuronal L-type Ca^2+ channels compared with all-trans farnesol ([2]; non-NGF PC12 cells, fura-2, FIG. 1 / FIG. 3) | activity on KCl-induced arterial contraction [7] | recognition by microsomal FolDH (microsomal FolDH) | substrate for ADH (ADH [8]) | substrate for monoamine oxidase [9] | inhibition at 25 µM (L-type Ca^2+ channel; 25 μM, 30 min incubation, 60-min. wash-out, read-out: inhibition of arterial contraction still observed after wash-out)
1 | CC1=C(/C=C/C(C)=C/C=C/C(C)=C/CO)C(C)(C)CCC1 [Retinol, (2E,4E,6E,8E)-3,7-dimethyl-9-(2,6,6-trimethylcyclohex-1-enyl)nona-2,4,6,8-tetraen-1-ol] | ++ | la | 5 µM | blocks efficiently | ~90% | metabolized by class IV ADH | blocks efficiently | significantly less reversible | – | – | – | – | – | – | –
2 | CC(C)=CCC/C(C)=C/COc1cccc(O)c1 [Geranylresorcinol, (E)-3-(3,7-dimethylocta-2,6-dienyloxy)phenol] | – | la | – | – | – | – | – | less reversible | stable | strongly inhibits | strongly inhibits | not recognized by microsomal FolDH | very poor substrate for ADH | – | –
3 | CC(C)=CCC/C(C)=C/CC/C(C)=C/CN [Farnesylamine, (2E,6E)-3,7,11-trimethyldodeca-2,6,10-trien-1-amine] | – | la | – | – | – | – | – | relatively less reversible | – | – | more potent inhibitor of arterial contractions than farnesol | – | – | specific substrate for monoamine oxidase A | ~80%
